Assays:
Assay type in all cases: in vivo
[1] = system: Echinochloa crus-galli (ECHCG); assay: Example B post-emergence herbicidal test, ECHCG; conditions: Echinochloa crus-galli, 312 h, rate 250 g/ha, evaluated after 13 days, scale 0-100, read-out: Post-emergence activity ECHCG (100=total damage to plant; 0=no damage to plant)
Outline: (§1)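 Score: 0 = no damage, 100 = total damage, assessed 13 days post-spray. Plants sprayed 8 days after sowing with aqueous dilution of acetone/water (50:50) formulation containing 0.5% Tween 20.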

[2] = system: Alopecurus myosuroides (ALOMY); assay: Example B pre-emergence herbicidal test, ALOMY; conditions: Alopecurus myosuroides, 312 h, rate 250 g/ha, evaluated after 13 days, 100=total damage to plant, 0=no damage to plant
Outline: (§2)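 Pots sown, sprayed day 1 pre-emergence; spray: aqueous dilution of formulation in acetone/water 50:50 + 0.5% Tween 20. Glasshouse 24/16° C, 14 h light, 65% RH, watering twice daily. Visual damage rating at 13 d, 0–100 scale.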

[3] = system: Echinochloa crus-galli (ECHCG); assay: Example B pre-emergence herbicidal test, ECHCG; conditions: Echinochloa crus-galli, 312 h, rate 250 g/ha, evaluated after 13 days, 100=total damage to plant, 0=no damage to plant
Outline: as §2

Lolium perenne (LOLPE) [4] = assay: Example B post-emergence herbicidal test, LOLPE; conditions: Lolium perenne, 312 h, rate 250 g/ha, evaluated after 13 days, scale 0-100, read-out: Post-emergence activity LOLPE (100=total damage to plant; 0=no damage to plant)
Outline: as §1

[5] = system: Winter Wheat variety 'Hereward'; assay: Example C crop damage test on Winter Wheat, post-emergence, no safener; conditions: Triticum aestivum, 312 h, rate 250 g/ha, evaluated after 13 days, read-out: Winter Wheat (Hereward) damage (100=total damage to plant; 0=no damage to plant)
Description: Seeds of the Winter Wheat variety ‘Hereward’ were sown in standard soil in pots. After 8 days cultivation under controlled conditions in a glasshouse (at 24/16° C., day/night; 14 hours light; 65% humidity), the plants were sprayed with an aqueous spray solution derived from the formulation of the technical active ingredient in acetone/water (50:50) solution containing 0.5% Tween 20 (polyoxyethelyene sorbitan monolaurate, CAS RN 9005-64-5). The test plants were then grown in a glasshouse under controlled conditions in a glasshouse (at 24/16° C., day/night; 14 hours light; 65% humidity) and watered twice daily. After 13 days for pre and post-emergence, the test was evaluated (100=total damage to plant; 0=no damage to plant).

Avena fatua (AVEFA) [6] = assay: Example B post-emergence herbicidal test, AVEFA; conditions: Avena fatua, 312 h, rate 250 g/ha, evaluated after 13 days, scale 0-100, read-out: Post-emergence activity AVEFA (100=total damage to plant; 0=no damage to plant)
Outline: as §1

[7] = system: Alopecurus myosuroides (ALOMY); assay: Example B post-emergence herbicidal test, ALOMY; conditions: Alopecurus myosuroides, 312 h, rate 250 g/ha, evaluated after 13 days, scale 0-100, read-out: Post-emergence activity ALOMY (100=total damage to plant; 0=no damage to plant)
Outline: as §1

Lolium perenne (LOLPE) [8] = assay: Example B pre-emergence herbicidal test, LOLPE; conditions: Lolium perenne, 312 h, rate 250 g/ha, evaluated after 13 days, 100=total damage to plant, 0=no damage to plant
Outline: as §2

[9] = system: Winter Wheat variety 'Hereward' seed treated with cloquintocet mexyl; assay: Example C crop damage test on Winter Wheat seed treated with safener cloquintocet mexyl, post-emergence; conditions: rate 250 g/ha, seed treated with cloquintocet mexyl 0.5 grams per kilogram of dry seed, evaluated after 13 days
Description: Seeds of the Winter Wheat variety ‘Hereward’ were seed treated with a wettable powder formulation of the cereal herbicide safener, cloquintocet mexyl, at a rate of 0.5 grams per kilogram of dry seed prior to the initiation of glasshouse testing. One seed was sown per 1.5 inch plastic pot into a sandy loam soil at a depth of 1 cm, 8 days prior to application of the test compounds and was watered and grown under controlled conditions in a glasshouse (at 24/16° C., day/night; 14 hours light; 65% humidity). The plants were sprayed Post-emergence with an aqueous spray solution derived from the formulation of the technical active ingredient in acetone/water (50:50) solution containing 0.5% Tween 20 (polyoxyethelyene sorbitan monolaurate, CAS RN 9005-64-5). The test plants were then grown in a glasshouse under controlled conditions in a glasshouse (at 24/16° C., day/night; 14 hours light; 65% humidity) and watered twice daily. After 13 days for pre and post-emergence, the test was evaluated (100=total damage to plant; 0=no damage to plant).

Avena fatua (AVEFA) [10] = assay: Example B pre-emergence herbicidal test, AVEFA; conditions: Avena fatua, 312 h, rate 250 g/ha, evaluated after 13 days, 100=total damage to plant, 0=no damage to plant
Outline: as §2

Row | Structure (SMILES) | pest or weed control at 250 g/ha [1] | pest or weed control at 250 g/ha [2] | pest or weed control at 250 g/ha [3] | pest or weed control at 250 g/ha (Lolium perenne (LOLPE) [4]) | crop damage to winter wheat at 250 g/ha [5] | pest or weed control at 250 g/ha (Avena fatua (AVEFA) [6]) | pest or weed control at 250 g/ha [7] | pest or weed control at 250 g/ha (Lolium perenne (LOLPE) [8]) | Winter Wheat (Hereward) + cloquintocet mexyl damage (100=total damage to plant; 0=no damage to plant) [9] | pest or weed control at 250 g/ha (Avena fatua (AVEFA) [10])
1 | Cc1cc(C)c(C2=C(OC(=O)C(C)(C)C)CC(CC3CCOC3)C2=O)c(C)c1 (stereo not drawn) [Compound P7] | 90% | 100% | 100% | 100% | 70% | 80% | 100% | 100% | 0 | 90%
2 | Cc1cc(C)c(C2=C(OC(=O)C(C)(C)C)C/C(=C\C3CCOCC3)C2=O)c(C)c1 [Compound P11] | 100% | 100% | 100% | 100% | 80% | 90% | 90% | 100% | 70 | 100%
3 | Cc1cc(C)c(C2=C(OC(=O)C(C)C)CC(CC3CCOC3)C2=O)c(C)c1 (stereo not drawn) [Compound P13] | 100% | 100% | 100% | 100% | 70% | 90% | 90% | 100% | 10 | 90%
4 | CCCCCCC(=O)OC1=C(c2c(C)cc(C)cc2C)C(=O)C(CC2CCOC2)C1 (stereo not drawn) [Compound P16] | 100% | 100% | 100% | 100% | 70% | 100% | 100% | 100% | 0 | 90%
5 | Cc1cc(C)c(C2=C(OC(=O)c3ccccc3)CC(CC3CCOC3)C2=O)c(C)c1 (stereo not drawn) [Compound P17] | 100% | 100% | 90% | 100% | 70% | 90% | 100% | 100% | 0 | 90%
6 | CCCOC(=O)OC1=C(c2c(C)cc(C)cc2C)C(=O)C(CC2CCOC2)C1 (stereo not drawn) [Compound P20] | 100% | 100% | 80% | 100% | 40% | 90% | 100% | 100% | 0 | 90%
7 | Cc1cc(C)c(C2=C(OC(=O)OC(C)C)CC(CC3CCOCC3)C2=O)c(C)c1 (stereo not drawn) [Compound P43] | 100% | 100% | 100% | 100% | 50% | 90% | 100% | 100% | 40 | 100%
8 | Cc1cc(C)c(C2=C(OC(=O)c3ccccc3)CC(CC3CCOCC3)C2=O)c(C)c1 (stereo not drawn) [Compound P44] | 100% | 100% | 100% | 100% | 70% | 100% | 100% | 100% | 40 | 90%
9 | CON1CCC(CC2CC(OC(=O)OC(C)C)=C(c3c(C)cc(C)cc3C)C2=O)CC1 (stereo not drawn) [Compound P56] | 90% | 100% | 100% | 100% | 90% | 100% | 90% | 100% | 60 | 90%
10 | Cc1cc(C)c(C2C(=O)C/C(=C\C3CCS(=O)(=O)CC3)C2=O)c(C)c1 (stereo not drawn) [Compound T10] | 80% | 70% | 70% | 70% | 60% | 80% | 70% | 90% | 20 | 40%
11 | CCc1cc(C)cc(CC)c1C1C(=O)C(CC2CCOCC2)C(CC2CCOCC2)C1=O (stereo not drawn) [Compound T12] | 100% | 100% | 100% | 100% | 70% | 100% | 100% | 100% | 60 | 100%
12 | Cc1cc(C)c(C2C(=O)C/C(=C\C3CCCOC3)C2=O)c(C)c1 (stereo not drawn) [Compound T14] | 100% | 100% | 100% | 100% | 80% | 100% | 100% | 100% | 60 | 100%
13 | Cc1cc(C)c(C2C(=O)CC(CC3CCCOC3)C2=O)c(C)c1 (stereo not drawn) [Compound T16] | 100% | 100% | 100% | 100% | 80% | 100% | 100% | 100% | 20 | 80%
14 | Cc1cc(C)c(C2C(=O)CC(CC3CCN(C(=O)C(F)(F)F)CC3)C2=O)c(C)c1 (stereo not drawn) [Compound T163] | 90% | 50% | 60% | 100% | – | 100% | 90% | 80% | – | 60%

From patent publication US9096560B2, “5-heterocyclylalkyl-3-hydroxy-2-phenylcyclopent-2-enones as herbicides” (Syngenta Limited, priority 2008, dated 2015)
